Tests used:
Type in all cases: in vivo
[1] = system: Culex quinquefasciatus; assay: Insecticide effectiveness in the vapour phase against mosquitoes, impregnated paper unit in 20 m^3 room (Example 9); details: 5 mg/unit; for % mortality 24 h: 24th hour from start of test; for % Knock-down 8 h: at end of 8th hour; for Knock-down time KT10 / Knock-down time KT50 / Knock-down time KT90: average of 3 cages
Protocol: (§1) Test units consisting of a paper support 20 cm×10 cm in size were impregnated with the compound of examples 3, 7 and 8 and, for comparative purposes, with the reference compounds transfluthrin and metofluthrin, at an amount of 5.00 mg/unit for each compound (pure). Using a common laboratory stand, the test unit was placed at a height of about 30 cm from the ground along one side of a 20 m^3 room (L 3.00 m×D 2.49 m×H 2.69 m). In order to homogenize the insecticidal air within the room, a small electric fan was placed on the floor diagonal to the surface of the unit, in the nearest corner at a distance of about 50 cm from the unit. Three metal cages (L 8.4 cm×Ø 8.0 cm×mesh 1.0 mm) for every mosquito species, each containing 20 3-4 day old individuals of mixed sex, were placed along the other three sides of the room, at a height of 1.80 m from the ground and at a distance of 0.45 m from the respective walls. During the test the room was kept closed and temperature and humidity were controlled (T 23-26° C., RH 49-61%). The fan was switched on and left on for 8 continuous hours. The times needed to reach 10%, 50% and 90% insect knock-down (KT10, KT50 and KT90, respectively) were recorded.
(§2) Every 2 hours and up to the 6th hour after the fan was switched on, new cages were introduced containing insects (set of 3 cages for each species).
(§3) At the end of the 8th hour, the percentage of insects knocked down in all the cages was determined, then the insects were removed from the room and transferred into an uncontaminated atmosphere within closed containers containing a sugary solution. The percentage mortality was recorded at the 24th hour from the start of the test.
(§4) The results obtained are summarized in tables 1 and 2 and the data are averages for the 3 cages.

[2] = system: Aedes aegypti; assay: as above; details: 5 mg/unit; for % mortality 24 h: 24th hour from start of test; for % Knock-down 8 h: at end of 8th hour; for Knock-down time KT10 / Knock-down time KT50 / Knock-down time KT90: average of 3 cages
Protocol: as §1, §2, §3, §4

[3] = system: Culex quinquefasciatus; assay: Insecticide effectiveness in the vapour phase against mosquitoes, impregnated paper unit in 20 m^3 room (Example 5); details: 5 mg/unit; for % mortality 24 h: 24th hour from start of test; for % Knock-down 8 h: at end of 8th hour; for Knock-down time KT10 / Knock-down time KT50 / Knock-down time KT90: average of 3 cages
Protocol: (§5) Test units consisting of a paper support 20 cm×10 cm in size were impregnated with the compound of example 3 and, for comparative purposes, with the reference compounds transfluthrin and metofluthrin, at an amount of 5.00 mg/unit for each compound (pure).
(§6) Using a common laboratory stand, the test unit was placed at a height of about 30 cm from the ground along one side of a 20 m^3 room (L 3.00 m×D 2.49 m×H 2.69 m). In order to homogenize the insecticidal air within the room, a small electric fan was placed on the floor diagonal to the surface of the unit, in the is nearest corner at a distance of about 50 cm from the unit. Three metal cages (L 8.4 cm×Ø 8.0 cm×mesh 1.0 mm) for every mosquito species, each containing 20 3-4 day old individuals of mixed sex, were placed along the other three sides of the room, at a height of 1.80 m from the ground and at a distance of 0.45 m from the respective walls. During the test the room was kept closed and temperature and humidity were controlled (T 23-26° C., RH 49-61%).
(§7) The fan was switched on and left on for 8 continuous hours. The times needed to reach 10%, 50% and 90% insect knock-down (KT10, KT50 and KT90, respectively) were recorded.
as §2, §3, §4

[4] = system: Aedes aegypti; assay: as above; details: 5 mg/unit; for % mortality 24 h: 24th hour from start of test; for % Knock-down 8 h: at end of 8th hour; for Knock-down time KT10 / Knock-down time KT50 / Knock-down time KT90: average of 3 cages
Protocol: as §5, §6, §7, §2, §3, §4

[5] = system: Blattella germanica; assay: Effectiveness of residual insecticide on surfaces (glazed tiles) against cockroaches (Example 6); details: 50 mg/m^2 on glazed tiles, 24 h exposure
Protocol: Solutions of the compound of example 3 in acetone and, for comparison, of the reference compounds Transfluthrin and Metofluthrin were applied from a distance of 12 cm onto glazed tiles (Ostara model, 15×15 cm=225 cm^2) by means of a suitable glass sprayer, so as to obtain an applied amount of pure compound equal to 50 mg/m^2. After treatment the tiles were transferred to and maintained in a closed test room at controlled temperature and humidity (24-25° C., RH 50-60%). Glass rings (H 5.5 cm×Ø 9.5 cm), with their internal surface treated with talc, and each containing 5 cockroaches, were positioned at the centre of the tiles for each of the assessment times of 24 hours, 3, 7, 10 and 14 days following treatment. For each assessment day, the insects were maintained on the surface for 24 hours and the time (hours, minutes) necessary to attain 100% knock-down followed by death, or percentage knock-down at the end of 24 hours, were recorded.

CC1(C)[C@H](C=C(Cl)Cl)[C@H]1C(=O)OCc1c(F)c(F)cc(F)c1F [Transfluthrin, transfluthrin]
% mortality 24 h ([1]; insect exposure after 0 hours): 100% | % Knock-down 8 h ([1]; insect exposure after 0 hours): 100% | Knock-down time KT10 ([1]; insect exposure after 0 hours): 31 min | Knock-down time KT50 ([1]; insect exposure after 0 hours): 42 min | Knock-down time KT90 ([1]; insect exposure after 0 hours): 55 min | % mortality 24 h ([1]; insect exposure after 2 hours): 100% | % Knock-down 8 h ([1]; insect exposure after 2 hours): 100% | Knock-down time KT10 ([1]; insect exposure after 2 hours): 16 min | Knock-down time KT50 ([1]; insect exposure after 2 hours): 25 min | Knock-down time KT90 ([1]; insect exposure after 2 hours): 34 min | % mortality 24 h ([1]; insect exposure after 4 hours): 100% | % Knock-down 8 h ([1]; insect exposure after 4 hours): 100% | Knock-down time KT10 ([1]; insect exposure after 4 hours): 11 min | Knock-down time KT50 ([1]; insect exposure after 4 hours): 16 min | Knock-down time KT90 ([1]; insect exposure after 4 hours): 24 min | % mortality 24 h ([2]; insect exposure after 0 hours): 100% | % Knock-down 8 h ([2]; insect exposure after 0 hours): 100% | Knock-down time KT10 ([2]; insect exposure after 0 hours): 21 min | Knock-down time KT50 ([2]; insect exposure after 0 hours): 26 min | Knock-down time KT90 ([2]; insect exposure after 0 hours): 35 min | % mortality 24 h ([2]; insect exposure after 2 hours): 100% | % Knock-down 8 h ([2]; insect exposure after 2 hours): 100% | Knock-down time KT10 ([2]; insect exposure after 2 hours): 7 min | Knock-down time KT50 ([2]; insect exposure after 2 hours): 9 min | Knock-down time KT90 ([2]; insect exposure after 2 hours): 12 min | % mortality 24 h ([2]; insect exposure after 4 hours): 100% | % Knock-down 8 h ([2]; insect exposure after 4 hours): 100% | Knock-down time KT10 ([2]; insect exposure after 4 hours): 6 min | Knock-down time KT50 ([2]; insect exposure after 4 hours): 9 min | Knock-down time KT90 ([2]; insect exposure after 4 hours): 14 min | % mortality 24 h ([3]; insect exposure after 0 hours): 100% | % Knock-down 8 h ([3]; insect exposure after 0 hours): 100% | Knock-down time KT10 ([3]; insect exposure after 0 hours): 27 min | Knock-down time KT50 ([3]; insect exposure after 0 hours): 37 min | Knock-down time KT90 ([3]; insect exposure after 0 hours): 44 min | % mortality 24 h ([3]; insect exposure after 2 hours): 100% | % Knock-down 8 h ([3]; insect exposure after 2 hours): 100% | Knock-down time KT10 ([3]; insect exposure after 2 hours): 7 min | Knock-down time KT50 ([3]; insect exposure after 2 hours): 14 min | Knock-down time KT90 ([3]; insect exposure after 2 hours): 20 min | % mortality 24 h ([3]; insect exposure after 4 hours): 100% | % Knock-down 8 h ([3]; insect exposure after 4 hours): 100% | Knock-down time KT10 ([3]; insect exposure after 4 hours): 9 min | Knock-down time KT50 ([3]; insect exposure after 4 hours): 17 min | Knock-down time KT90 ([3]; insect exposure after 4 hours): 22 min | % mortality 24 h ([4]; insect exposure after 0 hours): 100% | % Knock-down 8 h ([4]; insect exposure after 0 hours): 100% | Knock-down time KT10 ([4]; insect exposure after 0 hours): 21 min | Knock-down time KT50 ([4]; insect exposure after 0 hours): 26 min | Knock-down time KT90 ([4]; insect exposure after 0 hours): 36 min | % mortality 24 h ([4]; insect exposure after 2 hours): 100% | % Knock-down 8 h ([4]; insect exposure after 2 hours): 100% | Knock-down time KT10 ([4]; insect exposure after 2 hours): 5 min | Knock-down time KT50 ([4]; insect exposure after 2 hours): 9 min | Knock-down time KT90 ([4]; insect exposure after 2 hours): 12 min | % mortality 24 h ([4]; insect exposure after 4 hours): 100% | % Knock-down 8 h ([4]; insect exposure after 4 hours): 100% | Knock-down time KT10 ([4]; insect exposure after 4 hours): 4 min | Knock-down time KT50 ([4]; insect exposure after 4 hours): 7 min | Knock-down time KT90 ([4]; insect exposure after 4 hours): 10 min | percentage knock-down after 24 hours ([5]; 1 day after treatment): 60% | percentage knock-down after 24 hours ([5]; 3 days after treatment): 24 h 0% | percentage knock-down after 24 hours ([5]; 7 days after treatment): 24 h 0%
